Data: patent US20210221785A1, “AMINO-PYRIMIDONYL DERIVATIVES, A PROCESS FOR THEIR PREPARATION AND PHARMACEUTICAL COMPOSITIONS CONTAINING THEM” (LES LABORATOIRES SERVIER, priority 2018, published 2021)
Counter-ions that a name gives are not always drawn.

Key:
[1] = system: Z138 mantle cell lymphoma tumour cell lines; assay: In vitro cytotoxicity, MTT assay; format: cell-based; conditions: Homo sapiens, Z138 cells exposed to the test compounds for 96 hours, cell viability vs DMSO treated cells
Description: The cytotoxicity studies were evaluated by MTT [3-(4,5-dimethylthiazol-2-yl)-2,5-diphenyltetrazolium bromide] assay and carried out on Z138 mantle cell lymphoma tumour cell lines. The cells are distributed onto microplates and exposed to the test compounds for 96 hours. MTT is then added for 4 hours and converted by NAD(P)H-dependent cellular oxidoreductase enzymes in formazan, which has a purple color. The viable cell number is proportional to the production of formuan salts and cell viability can be quantified by the absorbance of the solution at 540 nm with a speetrophotometer (Carmichael et al., Cancer Res. 1987, 47, 936-942).

[2] = molecular target: T1, His-His-USP7 (aa208-560, |C315A|) (Homo sapiens, UniProt Q93009, C315A); assay: Evaluation of the inhibition of USP7 by the Fluorescence Intensity (FLINT) readings; format: biochemical; conditions: 0.25 nM His-His-USP7, compound incubated 60 minutes at 30° C., 500 nM Ubiquitin-Rhodamine-110 substrate; 50% reduction in kinetic rate
T1 construct: His-His-USP7 (aa208-560, |C315A|); His-His (N)
How it was run: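 0.25 nM His-His-USP7 (aa208–560, C315A) preincubated 60 min at 30 °C with compound in 100 mM Bicine pH 8.0, 0.01% Triton X-100, 1 mM TCEP, 10% DMSO. Reaction started with 500 nM ubiquitin-rhodamine-110 and fluorescence (Ex485/Em535) read every 3 min for 21 min. IC50 derived from kinetic-rate reduction over an 11-point curve, 4-parameter fit.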

T1 sequence (Q93009 208-560 C315A): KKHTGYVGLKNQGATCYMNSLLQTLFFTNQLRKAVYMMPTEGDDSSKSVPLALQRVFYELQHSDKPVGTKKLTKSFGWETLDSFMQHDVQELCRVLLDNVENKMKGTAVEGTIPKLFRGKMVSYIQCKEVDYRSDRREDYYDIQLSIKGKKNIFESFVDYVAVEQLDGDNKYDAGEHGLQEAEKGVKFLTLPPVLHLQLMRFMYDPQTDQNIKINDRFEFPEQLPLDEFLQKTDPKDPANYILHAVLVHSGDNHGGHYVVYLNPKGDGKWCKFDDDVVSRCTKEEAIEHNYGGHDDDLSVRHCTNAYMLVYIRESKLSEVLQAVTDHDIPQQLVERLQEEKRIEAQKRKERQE

| Compound | IC50 ([1]; Z-138) [µM] | IC50 [2] [µM] | IC50 ([1]; Z-138, 96 h) [µM] |
| --- | --- | --- | --- |
| COc1cc(Oc2ncn(CC3(O)CCN(C(=O)[C@@H]4CCC(F)(F)C[C@H]4c4ccccc4)CC3)c(=O)c2N)ccc1Cl [Example 12, 5-amino-6-(4-chloro-3-methoxy-phenoxy)-3-({1-[(1R,2R)-4,4-difluoro-2-phenylcyclohexane-1-carbonyl]-4-hydroxypiperidin-4-yl}methyl)pyrimidin-4(3H)-one] | 0.0909 | 0.0571 |  |
| Nc1c(Oc2ccc3c(c2)OCO3)ncn(CC2(O)CCN(C(=O)[C@@H]3CCC(F)(F)C[C@H]3c3ccccc3)CC2)c1=O [Example 14] |  | 0.0718 | 0.0413 |
| COc1cc(O)cc(Oc2ncn(CC3(O)CCN(C(=O)[C@@H]4CCC(F)(F)C[C@H]4c4ccccc4)CC3)c(=O)c2N)c1 [Example 15, 5-amino-3-({1-[(1R,2R)-4,4-difluoro-2-phenylcyclohexane-1-carbonyl]-4-hydroxypiperidin-4-yl}methyl)-6-(3-hydroxy-5-methoxyphenoxy)pyrimidin-4(3H)-one] |  | 0.0235 | 0.0195 |
| COc1cc(Oc2ncn(CC3(O)CCN(C(=O)[C@@H]4CCC(F)(F)C[C@H]4c4ccccc4)CC3)c(=O)c2N)ccc1F [Example 16, 5-amino-3-({1-[(1R,2R)-4,4-difluoro-2-phenylcyclohexane-1-carbonyl]-4-hydroxypiperidin-4-yl}methyl)-6-(4-fluoro-3-methoxyphenoxy)pyrimidin-4(3H)-one] |  | 0.0516 | 0.0424 |
| Cc1cccc(Oc2ncn(CC3(O)CCN(C(=O)[C@@H]4CCC(F)(F)C[C@H]4c4ccccc4)CC3)c(=O)c2N)c1 [Example 19, 5-amino-3-({1-[(1R,2R)-4,4-difluoro-2-phenylcyclohexane-1-carbonyl]-4-hydroxypiperidin-4-yl}methyl)-6-(3-methylphenoxy)pyrimidin-4(3H)-one] |  | 0.0831 | 0.0716 |
| Nc1c(Oc2cccc(Br)c2)ncn(CC2(O)CCN(C(=O)[C@@H]3CCC(F)(F)C[C@H]3c3ccccc3)CC2)c1=O [Example 20, 5-amino-6-(3-bromophenoxy)-3-([1-{(1R,2R)-4,4-difluoro-2-phenylcyclohexane-1-carbonyl]-4-hydroxypiperidin-4-yl}methyl)pyrimidin-4(3H)-one] |  | 0.105 | 0.146 |
| Nc1c(Oc2ccc(CO)cc2)ncn(CC2(O)CCN(C(=O)[C@@H]3CCC(F)(F)C[C@H]3c3ccccc3)CC2)c1=O [Example 23, 5-amino-3-({1-[(1R,2R)-4,4-difluoro-2-phenylcyclohexane-1-carbonyl]-4-hydroxypiperidin-4-yl}methyl)-6-[4-(hydroymethyl)phenoxy]pyrimidin-4(3H)-one] |  | 0.04 | 0.22 |
| N#Cc1ccc(Oc2ncn(CC3(O)CCN(C(=O)[C@@H]4CCC(F)(F)C[C@H]4c4ccccc4)CC3)c(=O)c2N)cc1 [Example 24, 4-{[5-amino-1-({1-[(1R,2R)-4,4-difluoro-2-phenylcyclohexane-1-carbonyl]-4-hydroxypiperidin-4-yl}methyl)-6-oxo-1,6-dihydropyrimidin-4-yl]oxy}benzonitrile] |  | 0.03 | 0.165 |
| Nc1c(Oc2ccc3c(c2)CNCC3)ncn(CC2(O)CCN(C(=O)[C@@H]3CCC(F)(F)C[C@H]3c3ccccc3)CC2)c1=O [Example 26, 5-amino-3-({1-[(1R,2R)-4,4-difluoro-2-phenylcyclohexane-1-carbonyl]-4-hydroxypiperidin-4-yl}methyl)-6-[(1,2,3,4-tetrahydroisoquinolin-7-yl)oxy]pyrimidin-4(3H)-one, hydrochloride] |  | 0.02 | 0.406 |
| Nc1c(Oc2cccc(CO)c2)ncn(CC2(O)CCN(C(=O)[C@@H]3CCC(F)(F)C[C@H]3c3ccccc3)CC2)c1=O [Example 28, 5-amino-3-({1-[(1R,2R)-4,4-difluoro-2-phenylcyclohexane-1-carbonyl]-4-hydroxypiperidin-4-yl}methyl)-6-[3-(hydroxymethyl)phenoxy]pyrimidin-4(3H)-one] |  | 0.053 | 0.052 |
| Nc1c(Oc2ccc3c(c2)CCNC3)ncn(CC2(O)CCN(C(=O)[C@@H]3CCC(F)(F)C[C@H]3c3ccccc3)CC2)c1=O [Example 31, 5-amino-3-({1-[(1R,2R)-4,4-difluoro-2-phenylcyclohexane-1-carbonyl]-4-hydroxypiperidin-4-yl}methyl)-6-[(1,2,3,4-tetrahydroisoquinolin-6-yl)oxy]pyrimidin-4(3H)-one] |  | 0.047 | 0.648 |
| Nc1c(Oc2ccc3c(c2)CNC3)ncn(CC2(O)CCN(C(=O)[C@@H]3CCC(F)(F)C[C@H]3c3ccccc3)CC2)c1=O [Example 32, 5-amino-3-({1-[(1R,2R)-4,4-difluoro-2-phenylcyclohexane-1-carbonyl]-4-hydroxypiperidin-4-yl}methyl)-6-[(2,3-dihydro-1H-isoindol-5-yl)oxy]pyrimidin-4(3H)-one] |  | 0.032 | 0.896 |
| Nc1c(Oc2ccc(OCCO)cc2)ncn(CC2(O)CCN(C(=O)[C@@H]3CCC(F)(F)C[C@H]3c3ccccc3)CC2)c1=O [Example 33, 5-amino-3-({1-[(1R,2R)-4,4-difluoro-2-phenylcyclohexane-1-carbonyl]-4-hydroxypiperidin-4-yl}methyl)-6-[4-(2-hydroxyethoxy)phenoxy]pyrimidin-4(3H)-one] |  | 0.0459 | 0.0646 |
| Nc1c(Oc2ccc(C3CCCN3)cc2)ncn(CC2(O)CCN(C(=O)[C@@H]3CCC(F)(F)C[C@H]3c3ccccc3)CC2)c1=O (stereo partly drawn) [Example 34, 5-amino-3({1-[(1R,2R)-4,4-difluoro-2-phenylcyclohexane-1-carbonyl]-4-hydroxypiperidin-4-yl}methyl)-6-[4-(pyrrolidin-2-yl)phenoxy]pyrimidin-4(3H)-one] |  | 0.0108 | 0.52 |
| Nc1c(Oc2ccc3cn[nH]c3c2)ncn(CC2(O)CCN(C(=O)[C@@H]3CCC(F)(F)C[C@H]3c3ccccc3)CC2)c1=O [Example 35, 5-amino-3-({1-[(1R,2R)-4,4-difluoro-2-phenylcyclohexane-1-carbonyl]-4-hydroypiperidin-4-yl}methyl)-6-[(1H-indazol-6-yl)oxy]pyrimidin-4(3H)-one] |  | 0.0342 | 0.081 |
| Nc1c(Oc2ccc(CCO)cc2)ncn(CC2(O)CCN(C(=O)[C@@H]3CCC(F)(F)C[C@H]3c3ccccc3)CC2)c1=O [Example 36, 5-amino-3-({1-[(1R,2R)-4,4-difluoro-2-phenylcyclohexane-1-carbonyl]-4-hydroxypiperidin-4-}methyl)-6-[4-(2-hydroxyethyl)phenoxy]pyrimdin-4(3H)-one] |  | 0.029 | 0.035 |
| Nc1c(Oc2ccc(CC(F)F)cc2)ncn(CC2(O)CCN(C(=O)[C@@H]3CCC(F)(F)C[C@H]3c3ccccc3)CC2)c1=O [Example 38, 5-amino-6-[4-(2,2-difluoroethyl)phenoxy]-3-({1-[(1R,2R)-4,4-difluoro-2-phenylcyclohexane-1-carbonyl]-4-hydroxypiperidin-4-yl}methyl)pyrimidin-4(3H)-one] |  | 0.0639 | 0.128 |
| Nc1c(Oc2ccc(F)c(O)c2)ncn(CC2(O)CCN(C(=O)[C@@H]3CCC(F)(F)C[C@H]3c3ccccc3)CC2)c1=O [Example 41, 5-amino-3-({1-[(1R,2R)-4,4-difluoro-2-phenylcyclohexane-1-carbonyl]-4-hydroxypiperidin-4-yl}methyl)-6-(4-fluoro-3-hydroxyphenoxy)pyrimidin-4(3H)-one] |  | 0.042 | 0.0096 |
| CCc1cc(Oc2ncn(CC3(O)CCN(C(=O)[C@@H]4CCC(F)(F)C[C@H]4c4ccccc4)CC3)c(=O)c2N)ccc1Cl [Example 42, 5-amino-6-(4-chloro-3-ethylphenoxy)-3-({1-[(1R,2R)-4,4-difluoro-2-phenylcyclohexane-1-carbonyl]-4-hydroxypiperidin-4-yl}methyl)pyrimidin-4(3H)-one] |  | 0.0897 | 0.169 |
| Nc1c(Oc2ccc(C=O)cc2)ncn(CC2(O)CCN(C(=O)[C@@H]3CCC(F)(F)C[C@H]3c3ccccc3)CC2)c1=O [Example 44] |  | 0.0387 | 0.0736 |
| Nc1c(Oc2ccc(F)cc2)ncn(CC2(O)CCN(C(=O)[C@@H]3CCC(F)(F)C[C@H]3c3ccccc3)CC2(F)F)c1=O (stereo partly drawn) [Example 45, 5-amino-3-({1-[(1R,2R)-4,4-difluoro-2-phenylcyclohexane-1-carbonyl]-3,3-difluoro-4-hydroxypiperidin-4-yl}methyl)-6-(4-fluorophenoxy)pyrimidin-4(3H)-one] |  | 0.057 | 0.115 |
| Nc1c(Oc2ccc3c(c2)CC(O)C3)ncn(CC2(O)CCN(C(=O)[C@@H]3CCC(F)(F)C[C@H]3c3ccccc3)CC2)c1=O (stereo partly drawn) [Example 48, 5-amino-3-({1-[(1R,2R)-4,4-difluoro-2-phenylcyclohexane-1-carbonyl]-4-hydroxypiperidin-4-yl}methyl)-6-[(2-hydroxy-2,3-dihydro-1H-inden-5-yl)oxy]pyrimidin-4(3H)-one] |  | 0.062 | 0.072 |
